Measurements published in PubChem BioAssay (NCI).
“And” between values parts separate entries of the source, which are not always exact repeats. Equal values may be shown once.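 Where inhibition never reached the appropriate level, the endpoint shown equals the highest concentration tested. Otherwise, values were interpolated linearly from a five-concentration, 48-hour dose response in 96-well plates. GI50 = concentration required for 50% inhibition of growth. TGI: concentration producing complete growth inhibition.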

Assays:
Assay in all cases: growth of human tumour cells (NCI), 48 h
EKVX NSCLC = tested on: EKVX NSCLC
HOP-92 NSCLC = tested on: HOP-92 NSCLC
HL-60(TB) leukemia = tested on: HL-60(TB) leukemia
UO-31 renal = tested on: UO-31 renal
SK-OV-3 ovarian = tested on: SK-OV-3 ovarian
HS 578T breast = tested on: HS 578T breast
SF-295 CNS = tested on: SF-295 CNS
A549 NSCLC = tested on: A549 NSCLC
MOLT-4 leukemia = tested on: MOLT-4 leukemia
SW-620 colon = tested on: SW-620 colon

| Compound | GI50 (EKVX NSCLC) [µM] | TGI (EKVX NSCLC) [µM] | GI50 (HOP-92 NSCLC) [µM] | TGI (HOP-92 NSCLC) [µM] | GI50 (HL-60(TB) leukemia) [µM] | TGI (HL-60(TB) leukemia) | GI50 (UO-31 renal) [µM] | TGI (UO-31 renal) [µM] | GI50 (SK-OV-3 ovarian) [µM] | TGI (SK-OV-3 ovarian) [µM] | GI50 (HS 578T breast) [µM] | TGI (HS 578T breast) [µM] | GI50 (SF-295 CNS) [µM] | TGI (SF-295 CNS) [µM] | GI50 (A549 NSCLC) [µM] | TGI (A549 NSCLC) | GI50 (MOLT-4 leukemia) [µM] | TGI (MOLT-4 leukemia) | GI50 (SW-620 colon) [µM] | TGI (SW-620 colon) |
| --- | --- | --- | --- | --- | --- | --- | --- | --- | --- | --- | --- | --- | --- | --- | --- | --- | --- | --- | --- | --- |
| CN1CCN(C2CCN(C(=O)Nc3cc(Oc4ccc(NC(=O)C5(C(=O)Nc6ccc(F)cc6)CC5)c(F)c4)ccn3)CC2)CC1 | > 1.99 | > 8.76 | 0.483 | > 2.54 | 1.39 | > 3.33 µM | 1.46 | > 10 | 1.3 | > 10 | 0.688 | > 2.52 | 0.47 | > 3.67 | 1.38 | > 10 µM | 0.803 | > 2.7 µM | 1.43 | > 10 µM |
| CCN1CCN(C(=O)[C@@]2(C)CC[C@]3(C)CC[C@]4(C)C(=CC(=O)[C@@H]5[C@@]6(C)CC[C@H](OC7C[C@@H](O)[C@@H](O)C(C)O7)C(C)(C)[C@@H]6CC[C@]54C)[C@@H]3C2)CC1 (stereo partly specified) | 3.51 | 10.4 | 5.25 | 12.5 | 0.939 | 1.91 µM | 0.757 | 1.53 | 9.96 | 19.5 | 7.52 | 17.8 | 0.934 | 1.83 | 1.76 | 8.94 µM | 1.18 | 3 µM | 1.7 | 6.36 µM |
| CC/C=C\C[C@H](O)C/C=C1/C(=O)C(Cl)=C[C@@H]1C/C=C\CCCC(=O)OC | 1.03 | 3.51 | 2.57 | 5.46 | 0.453 | 1.91 µM | 0.413 | 1.29 | 4.72 | 16.5 | 0.626 | 6.76 | 2.4 | 5.83 | 2.64 | 7.52 µM | 0.472 | 1.95 µM | 0.318 | 1.29 µM |
| CC1(C)S[C@@H]2[C@H](NC(=O)C3(N)CCCCC3)C(=O)N2[C@H]1C(=O)O |  | > 100 |  | > 100 |  | > 100 µM |  | > 100 |  | > 100 |  | > 100 |  | > 100 |  | > 100 µM |  | > 100 µM |  | > 100 µM |
| C[N+](C)(C)CC1CCCc2ccccc2C1=O (stereo unspecified) |  | 14.5 |  | 26.7 | 1.16 | 5.13 µM and 3.01 µM |  | 30.7 |  | 34.5 |  | 85.8 |  | > 55 | 18.6 | 5.72 µM and 36.6 µM | 0.388 | 7.79 µM and 1.06 µM |  | 3.67 µM and 3.92 µM |
| Oc1ccc(Nc2ncnc3c2sc2ncccc23)cc1 | 0.097 | > 100 | 0.08 | 11.6 | 0.0288 | > 56.5 µM | 0.0241 | 5.02 | 0.168 | > 40.2 | > 100 | > 100 | 0.0389 | > 100 | 0.0164 | > 100 µM | 0.0527 | > 45.5 µM | 0.0824 | > 100 µM |
| Cn1c(I)c(C#CCO[Si](C)(C)C(C)(C)C)c(=O)[nH]c1=O | 17.5 | 32.8 | 2.14 | 4.67 | 2.43 | 4.83 µM | 14.6 | 28.6 | > 100 | > 100 | 20.1 | 43.4 | > 100 | > 100 | > 100 | > 100 µM | 1.82 | 4.32 µM | 1.96 | 4.14 µM |
| O=C(/C=C/c1ccccc1)CCC1C(=O)c2ccccc2C1=O |  | > 100 |  | > 100 |  | > 100 µM |  | > 100 |  | > 100 |  | > 100 |  | > 100 |  | > 100 µM |  | > 100 µM |  | > 100 µM |
| COc1ccc(Sc2[nH]c(C(C)=O)c3ccccc23)cc1 | 8.13 | 26 | 2.4 | 18.1 | 15 | 33.4 µM | 5.84 | 23.4 | 1.79 | 10.5 | 10.9 | 32.6 | 11.6 | 26.7 | 4 | 51.3 µM |  |  | 12.5 | 26.8 µM |
| O=C(Nc1ccc(Br)cc1F)c1cc(F)ccc1O | 1.3 | 7.38 | 0.192 | 0.566 | 0.485 | 2.89 µM | 0.21 | 1.27 | 0.405 | 2.55 | 0.405 | 4.39 | 1.76 | 3.42 | 1.69 | > 100 µM | 1.86 | 6.4 µM | 0.805 | 15.4 µM |
| C/C=C(\C)C(=O)O[C@H]1C=CC(=O)O[C@H]1CCC(=O)[C@H](C)O | 17.8 | 33.6 | 14.3 | 28.3 | 7.34 | 24.8 µM | 15.9 | 31.2 | 36.5 | > 100 | 16.2 | 39 | 23.6 | 50.8 | 20.9 | 46.7 µM | 17.6 | 41.8 µM | 4.9 | 16.2 µM |
| COc1cc(-c2oc(=O)ccc2C#Cc2ccccn2)cc(OC)c1OC | 8.07 | > 100 | 2.23 | 25.4 | 2.14 | 6.4 µM | 3.22 | > 100 | 3.43 | 97.7 | 2.98 | > 24 | 0.224 | 2.01 | 4.15 | > 100 µM | 4.14 | > 100 µM | 2.28 | > 100 µM |
| CCN(CC)CCC(CNc1ccnc2cc(Cl)ccc12)c1ccc(Cl)cc1 (stereo unspecified) | 3.85 | 18.8 | 0.995 | 3.19 | 1.34 | 3.94 µM | 0.642 | 2.07 | 2.1 | 5.4 | 1.66 | 4.67 | 1.02 | 2.64 | 1.64 | 3.96 µM | 1.6 | 9.27 µM | 1.48 | 3.39 µM |
